Assay results: US20060069132A1, “Azolecarboxamide herbicides” (priority 2004, published 2006)

What was measured:
[1] = tested on: common (oilseed) sunflower; assay: Test C pre-/postemergence herbicide test; format: in vivo, Helianthus annuus
Outline: (§1)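 Visual injury scores run from 0 (no effect) to 100 (complete control), assessed relative to untreated controls 12 to 14 days after treatment in the greenhouse. Chemicals were formulated in a non-phytotoxic solvent mixture with surfactant and applied to soil after planting or to emerged plants at the 1- to 4-leaf stage.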

cocklebur = assay: Test C pre-/postemergence herbicide test; format: in vivo, Xanthium strumarium
Outline: as §1

rice = assay: Test C flooded paddy test; format: in vivo, Oryza sativa; conditions: Oryza sativa
Outline: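 Injury scored visually against controls on a 0 (no effect) to 100 (complete control) scale, 12 to 14 days after treatment in greenhouse. Flooded paddy plants treated at 2-leaf stage; postemergence plants at 1- to 4-leaf stage, 2 to 18 cm tall.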

soybean = assay: Test C pre-/postemergence herbicide test; format: in vivo, Glycine max
Outline: as §1

common ragweed = assay: Test C pre-/postemergence herbicide test; format: in vivo, Ambrosia elatior
Outline: as §1

yellow nutsedge = assay: Test C pre-/postemergence herbicide test; format: in vivo, Cyperus esculentus
Outline: as §1

lambsquarters = assay: Test C pre-/postemergence herbicide test; format: in vivo, Chenopodium album
Outline: as §1

CCn1nc2c(c1C(=O)Nc1cc(C(=O)N(C)C)ccc1F)CCC2(C)C [Compound 352, N-[5-[(dimethylamino)carbonyl]-2-fluorophenyl]-2-ethyl-2,4,5,6-tetrahydro-6,6-dimethyl-3-cyclopentapyrazolecarboxamide]
Plant response rating (0 = no effect, 100 = complete control), Sunflower ([1]; 125 g ai/ha, preemergence): 0 | pest or weed control at 62 g/ha ([1]; Helianthus annuus, pre-emergence, 62 g ai/ha, preemergence, scale 0 to 100, read-out: Plant response rating, Sunflower): 0% | pest or weed control at 250 g/ha ([1]; Helianthus annuus, pre-emergence, 250 g ai/ha, scale 0-100, read-out: Plant response rating, Sunflower): 0% | pest or weed control at 500 g/ha ([1]; Helianthus annuus, pre-emergence, 500 g ai/ha, scale 0 to 100 (0 no effect, 100 complete control), visual, 12 to 14 days, read-out: Plant response rating, Sunflower): 0% | Plant response rating (0 = no effect, 100 = complete control), Cocklebur (cocklebur; 125 g ai/ha, preemergence): 0 | pest or weed control at 62 g/ha (cocklebur; Xanthium strumarium, pre-emergence, 312 h, 62 g ai/ha, preemergence, scale 0 to 100, read-out: Plant response rating, Cocklebur): 0% | pest or weed control at 250 g/ha (cocklebur; Xanthium strumarium, pre-emergence, 312 h, 250 g ai/ha, scale 0-100, read-out: Plant response rating, Cocklebur): 0% | pest or weed control at 500 g/ha (cocklebur; Xanthium strumarium, pre-emergence, 312 h, 500 g ai/ha, scale 0 to 100 (0 no effect, 100 complete control), visual, 12 to 14 days, read-out: Plant response rating, Cocklebur): 30% | plant injury at 62 g/ha (rice; 62 g ai/ha, scale 0 to 100, read-out: Rice plant response rating): 20% | plant injury at 125 g/ha (rice; 125 g ai/ha, scale 0 to 100 (0 no effect, 100 complete control), read-out: Rice plant response rating): 45% | plant injury at 250 g/ha (rice; 250 g ai/ha, scale of 0 to 100, 0 is no effect, 100 is complete control, read-out: Rice plant response rating): 60% | plant injury at 500 g/ha (rice; 500 g ai/ha, visual rating after 12 to 14 days, scale 0 to 100 (0 no effect, 100 complete control), read-out: Plant response rating, Rice): 70% | Plant response rating (0 = no effect, 100 = complete control), Soybean (soybean; 125 g ai/ha, preemergence): 15 | plant injury at 62 g/ha (soybean; Glycine max, pre-emergence, 62 g ai/ha, preemergence, scale 0 to 100, read-out: Plant response rating, Soybean): 0% | plant injury at 250 g/ha (soybean; Glycine max, pre-emergence, 250 g ai/ha, scale 0-100, read-out: Plant response rating, Soybean): 50% | plant injury at 500 g/ha (soybean; Glycine max, pre-emergence, 500 g ai/ha, scale 0 to 100 (0 no effect, 100 complete control), visual, 12 to 14 days, read-out: Plant response rating, Soybean): 70% | Plant response rating (0 = no effect, 100 = complete control), Ragweed (common ragweed; 125 g ai/ha, preemergence): 40 | pest or weed control at 62 g/ha (common ragweed; Ambrosia artemisiifolia, pre-emergence, 62 g ai/ha, preemergence, scale 0 to 100, read-out: Plant response rating, Ragweed): 0% | pest or weed control at 250 g/ha (common ragweed; Ambrosia artemisiifolia, pre-emergence, 250 g ai/ha, scale 0-100, read-out: Plant response rating, Ragweed): 50% | pest or weed control at 500 g/ha (common ragweed; Ambrosia artemisiifolia, pre-emergence, 500 g ai/ha, scale 0 to 100 (0 no effect, 100 complete control), visual, 12 to 14 days, read-out: Plant response rating, Ragweed): 60% | Plant response rating (0 = no effect, 100 = complete control), Nutsedge, Yellow (yellow nutsedge; 125 g ai/ha, preemergence): 0 | pest or weed control at 62 g/ha (yellow nutsedge; Cyperus, pre-emergence, 62 g ai/ha, preemergence, scale 0 to 100, read-out: Plant response rating, Nutsedge, Yellow): 0% | pest or weed control at 250 g/ha (yellow nutsedge; Cyperus, pre-emergence, 250 g ai/ha, scale 0-100, read-out: Plant response rating, Nutsedge, Yellow): 10% | pest or weed control at 500 g/ha (yellow nutsedge; Cyperus, pre-emergence, 500 g ai/ha, scale 0 to 100 (0 no effect, 100 complete control), visual, 12 to 14 days, read-out: Plant response rating, Nutsedge, Yellow): 50% | Plant response rating (0 = no effect, 100 = complete control), Lambsquarters (lambsquarters; 125 g ai/ha, preemergence): 100 | pest or weed control at 62 g/ha (lambsquarters; Chenopodium album, pre-emergence, 62 g ai/ha, preemergence, scale 0 to 100, read-out: Plant response rating, Lambsquarters): 85% | pest or weed control at 250 g/ha (lambsquarters; Chenopodium album, pre-emergence, 250 g ai/ha, scale 0-100, read-out: Plant response rating, Lambsquarters): 100% | pest or weed control at 500 g/ha (lambsquarters; Chenopodium album, pre-emergence, 500 g ai/ha, scale 0 to 100 (0 no effect, 100 complete control), visual, 12 to 14 days, read-out: Plant response rating, Lambsquarters): 100%
